Data from patent US9676751B2, “2-amino-3-ester-pyridl orexin receptor antagonists” (MERCK SHARP & DOHME CORP., priority 2013, dated 2017).

Tests used:
[1] = target: T1, hOX1R (Homo sapiens, UniProt O43613); assay: FLIPR Ca2+ Flux Assay, CHO cells expressing the orexin-1 receptor; assay type: cell-based; conditions: agonist 70 pM Ala-6,12 orexin-A
T1 construct: expressed in transfected cells; host or cells: CHO cells
T1 sequence (O43613 1-425): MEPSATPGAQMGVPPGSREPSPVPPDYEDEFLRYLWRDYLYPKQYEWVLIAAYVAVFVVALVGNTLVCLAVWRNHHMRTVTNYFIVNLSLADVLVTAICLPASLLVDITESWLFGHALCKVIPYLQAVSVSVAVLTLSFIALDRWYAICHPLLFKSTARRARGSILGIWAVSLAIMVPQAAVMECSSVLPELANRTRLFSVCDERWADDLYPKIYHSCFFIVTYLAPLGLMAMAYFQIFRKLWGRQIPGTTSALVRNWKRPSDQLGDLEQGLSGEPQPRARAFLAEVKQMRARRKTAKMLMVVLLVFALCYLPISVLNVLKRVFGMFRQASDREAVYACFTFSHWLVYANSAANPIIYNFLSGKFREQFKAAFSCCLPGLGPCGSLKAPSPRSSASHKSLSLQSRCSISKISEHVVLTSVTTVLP

[2] = target: T2, human orexin-2 receptor (Homo sapiens, UniProt O43614); assay: FLIPR Ca2+ Flux Assay, CHO cells expressing the human orexin-2 receptor; assay type: cell-based; conditions: agonist 70 pM Ala-6,12 orexin-A, read-out: hOX2R FLIPR IC50
T2 construct: expressed in transfected cells; host or cells: CHO cells
T2 sequence (O43614 1-444): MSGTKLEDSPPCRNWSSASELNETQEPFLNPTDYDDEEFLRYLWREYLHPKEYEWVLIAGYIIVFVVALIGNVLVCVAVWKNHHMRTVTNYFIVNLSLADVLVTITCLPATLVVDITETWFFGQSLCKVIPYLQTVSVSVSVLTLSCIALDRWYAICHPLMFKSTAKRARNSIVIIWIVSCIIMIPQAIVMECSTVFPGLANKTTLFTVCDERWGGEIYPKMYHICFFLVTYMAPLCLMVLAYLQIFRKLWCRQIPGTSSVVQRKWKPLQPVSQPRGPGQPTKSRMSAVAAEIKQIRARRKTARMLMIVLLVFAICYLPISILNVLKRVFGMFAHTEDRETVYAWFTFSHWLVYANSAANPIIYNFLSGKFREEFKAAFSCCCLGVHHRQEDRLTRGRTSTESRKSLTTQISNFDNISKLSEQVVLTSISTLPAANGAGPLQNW
Description: The utility of the compounds in accordance with the present invention as orexin receptor OX1R and/or OX2R antagonists may be readily determined without undue experimentation by methodology well known in the art, including the “FLIPR Ca^2+ Flux Assay” (Okumura et al., Biochem. Biophys. Res. Comm. 280:976-981, 2001). In a typical experiment the OX1 and OX2 receptor antagonistic activity of the compounds of the present invention was determined in accordance with the following experimental method. For intracellular calcium measurements, Chinese hamster ovary (CHO) cells expressing the rat orexin-1 receptor or the human orexin-2 receptor, are grown in Iscove's modified DMEM containing 2 mM L-glutamine, […], 1% hypoxanthine-thymidine supplement, 100 U/ml penicillin, 100 μg/ml streptomycin and 10% heat-inactivated fetal calf serum (FCS). The cells are seeded at 20,000 cells/well into Becton-Dickinson black 384-well clear bottom sterile plates coated with poly-D-lysine. All reagents were from GIBCO-Invitrogen Corp. The seeded plates are incubated overnight at 37° C. and 5% CO2. Ala-6,12 human orexin-A as the agonist is prepared as a 1 mM stock solution in 1% bovine serum albumin (BSA) and diluted in assay buffer (HBSS containing 20 mM HEPES, 0.1% BSA and 2.5 mM probenecid, pH7.4) for use in the assay at a final concentration of 70 pM. Test compounds are prepared as 10 mM stock solution in DMSO, then diluted in 384-well plates, first in DMSO, then assay buffer. On the day of the assay, cells are washed 3 times with 100 μl assay buffer and then incubated for 60 min (37° C., 5% CO2) in 60 μl assay buffer containing 1 μM Fluo-4AM ester, 0.02% pluronic acid, and 1% BSA. The dye loading solution is then aspirated and cells are washed 3 times with 100 μl assay buffer. 30 μl of that same buffer is left in each well. Within the Fluorescent Imaging Plate Reader (FLIPR, Molecular Devices), test compounds are added to the plate in a volume of 25 μl, incubated for 5 min and finally 25 μl of agonist is added. Fluorescence is measured for each well at 1 second intervals for 5 minutes and the height of each fluorescence peak is compared to the height of the fluorescence peak induced by 70 pM Ala-6,12 orexin-A with buffer in place of antagonist. For each antagonist, IC50 value (the concentration of compound needed to inhibit 50% of the agonist response) is determined. Alternatively, compound potency can be assessed by a radioligand binding assay (described in Bergman et. al. Bioorg. Med. Chem. Lett. 2008, 18, 1425-1430) in which the inhibition constant (Ki) is determined in membranes prepared from CHO cells expressing either the OX1 or OX2 receptor. The intrinsic orexin receptor antagonist activity of a compound which may be used in the present invention may be determined by these assays.

SMILES | IC50 [1] [nM] | IC50 [2] [nM]
COC(=O)c1c(OC)ccnc1N[C@@H]1CC[C@@H](C)N(C(=O)c2cccc(F)c2-n2nccn2)C1 [Example 4, methyl 2-{[(3R,6R)-1-{[3-fluoro-2-(2H-1,2,3-triazol-2-yl)phenyl]carbonyl}-6-methylpiperidin-3-yl]amino}-4-methoxypyridine-3-carboxylate] | 362 | 45
COC(=O)c1c(OC)ccnc1N[C@@H]1CC[C@@H](C)N(C(=O)c2ccc(F)cc2-c2ncccn2)C1 [Example 13, methyl 2-({(3R,6R)-1-[(4-fluoro-2-pyrimidin-2-ylphenyl)carbonyl]-6-methylpiperidin-3-yl}amino)-4-methoxypyridine-3-carboxylate] | 138 | 44
COC(=O)c1c(OC)ccnc1N[C@@H]1CC[C@@H](C)N(C(=O)c2ccsc2-c2ncccn2)C1 [Example 17, methyl 4-methoxy-2-({(3R,6R)-6-methyl-1-[(2-pyrimidin-2-ylthiophen-3-yl)carbonyl]piperidin-3-yl}amino)pyridine-3-carboxylate] | 266 | 58
COC(=O)c1c(OC)ccnc1N[C@@H]1CC[C@@H](C)N(C(=O)c2cc(F)ccc2-c2ncccn2)C1 [Example 14, methyl 2-({(3R,6R)-1-[(5-fluoro-2-pyrimidin-2-ylphenyl)carbonyl]-6-methylpiperidin-3-yl}amino)-4-methoxypyridine-3-carboxylate] | 83 | 51
COC(=O)c1c(OC)ccnc1N[C@@H]1CC[C@@H](C)N(C(=O)c2ccccc2-c2nc(C)no2)C1 [Example 7, methyl 4-methoxy-2-{[(3R,6R)-6-methyl-1-{[2-(3-methyl-1,2,4-oxadiazol-5-yl)phenyl]carbonyl}piperidin-3-yl]amino}pyridine-3-carboxylate] | 309 | 74
COC(=O)c1c(OC)ccnc1N[C@@H]1CC[C@@H](C)N(C(=O)c2sccc2-c2ncccn2)C1 [Example 16, methyl 4-methoxy-2-({(3R,6R)-6-methyl-1-[(3-pyrimidin-2-ylthiophen-2-yl)carbonyl]piperidin-3-yl}amino)pyridine-3-carboxylate] | 402 | 40
COC(=O)c1c(OC)ccnc1N[C@@H]1CC[C@@H](C)N(C(=O)c2ccccc2-c2ncccn2)C1 [Example 11, Methyl 4-methoxy-2-({(3R,6R)-6-methyl-1-[(2-pyrimidin-2-ylphenyl)carbonyl]piperidin-3-yl}amino)pyridine-3-carboxylate] | 80 | 41
COC(=O)c1c(OC)ccnc1N[C@@H]1CC[C@@H](C)N(C(=O)c2c(F)cccc2-c2noc(C)n2)C1 [Example 10, methyl 2-{[(3R,6R)-1-{[2-fluoro-6-(5-methyl-1,2,4-oxadiazol-3-yl)phenyl]carbonyl}-6-methylpiperidin-3-yl]amino}-4-methoxypyridine-3-carboxylate] | 332 | 88
COC(=O)c1c(OC)ccnc1N[C@@H]1CC[C@@H](C)N(C(=O)c2c(F)cccc2-c2nc(C)no2)C1 [Example 8, methyl 2-{[(3R,6R)-1-{[2-fluoro-6-(3-methyl-1,2,4-oxadiazol-5-yl)phenyl]carbonyl}-6-methylpiperidin-3-yl]amino}-4-methoxypyridine-3-carboxylate] | 288 | 94
COC(=O)c1c(OC)ccnc1N[C@@H]1CC[C@@H](C)N(C(=O)c2cc(F)ccc2-n2nccn2)C1 [Example 5, methyl 2-{[(3R,6R)-1-{[5-fluoro-2-(2H-1,2,3-triazol-2-yl)phenyl]carbonyl}-6-methylpiperidin-3-yl]amino}-4-methoxypyridine-3-carboxylate] | 207 | 45
COC(=O)c1c(C#N)ccnc1N[C@@H]1CC[C@@H](C)N(C(=O)c2ccccc2-n2nccn2)C1 [Example 19, Methyl 4-cyano-2-{[(3R,6R)-6-methyl-1-{[2-(2H-1,2,3-triazol-2-yl)phenyl]carbonyl}-piperidin-3-yl]amino}pyridine-3-carboxylate] | 43 | 24
COC(=O)c1c(OC)ccnc1N[C@@H]1CC[C@@H](C)N(C(=O)c2ccccc2-n2ncnn2)C1 [Example 3, Methyl 4-methoxy-2-{[(3R,6R)-6-methyl-1-{[2-(2H-tetrazol-2-yl)phenyl]carbonyl}piperidin-3-yl]amino}pyridine-3-carboxylate] | 237 | 34

The next lines start with the values.

IC50 [1] [nM] | IC50 [2] [nM] | SMILES
86 | 48 | COC(=O)c1c(C#N)ccnc1N[C@@H]1CC[C@@H](C)N(C(=O)c2ccccc2-c2ncccn2)C1 [Example 20, Methyl 4-cyano-2-({(3R,6R)-6-methyl-1-[(2-pyrimidin-2-ylphenyl)carbonyl]piperidin-3-yl}amino)pyridine-3-carboxylate]
196 | 53 | COC(=O)c1c(OC)ccnc1N[C@@H]1CC[C@@H](C)N(C(=O)c2cccc(F)c2-c2ncccn2)C1 [Example 12, methyl 2-({(3R,6R)-1-[(3-fluoro-2-pyrimidin-2-ylphenyl)carbonyl]-6-methylpiperidin-3-yl}amino)-4-methoxypyridine-3-carboxylate]
338 | 168 | COC(=O)c1c(OC)ccnc1N[C@@H]1CC[C@@H](C)N(C(=O)c2ncccc2-c2ncccn2)C1 [Example 18, methyl 4-methoxy-2-({(3R,6R)-6-methyl-1-[(3-pyrimidin-2-ylpyridin-2-yl)carbonyl]piperidin-3-yl}amino)pyridine-3-carboxylate]
– | 38 | COC(=O)c1cccnc1N[C@@H]1CC[C@@H](C)N(C(=O)c2ccccc2-n2nccn2)C1 [Example 1, Methyl 2-{[(3R,6R)-6-methyl-1-{[2-(2H-1,2,3-triazol-2-yl)phenyl]carbonyl}piperidin-3-yl]amino}pyridine-3-carboxylate]
66 | 38 | COC(=O)c1c(OC)ccnc1N[C@@H]1CC[C@@H](C)N(C(=O)c2c(F)cccc2-c2ncccn2)C1 [Example 15, methyl 2-({(3R,6R)-1-[(2-fluoro-6-pyrimidin-2-ylphenyl)carbonyl]-6-methylpiperidin-3-yl}amino)-4-methoxypyridine-3-carboxylate]
236 | 57 | COC(=O)c1c(OC)ccnc1N[C@@H]1CC[C@@H](C)N(C(=O)c2cccc(F)c2-c2noc(C)n2)C1 [Example 9, methyl 2-{[(3R,6R)-1-{[3-fluoro-2-(5-methyl-1,2,4-oxadiazol-3-yl)phenyl]carbonyl}-6-methylpiperidin-3-yl]amino}-4-methoxypyridine-3-carboxylate]
